Molecular target: T1, Type-1 angiotensin II receptor (Oryctolagus cuniculus, UniProt P34976)
T1 sequence (P34976 whole entry): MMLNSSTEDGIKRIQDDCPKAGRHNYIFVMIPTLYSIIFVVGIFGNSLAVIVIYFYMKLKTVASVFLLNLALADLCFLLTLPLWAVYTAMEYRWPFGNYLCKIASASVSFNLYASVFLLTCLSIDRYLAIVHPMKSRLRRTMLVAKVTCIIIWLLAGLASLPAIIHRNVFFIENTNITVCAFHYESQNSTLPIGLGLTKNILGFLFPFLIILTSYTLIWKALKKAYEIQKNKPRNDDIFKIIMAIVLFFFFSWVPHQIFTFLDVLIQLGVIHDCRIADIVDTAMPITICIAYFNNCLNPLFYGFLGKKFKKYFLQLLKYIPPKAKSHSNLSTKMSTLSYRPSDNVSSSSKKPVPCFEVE
Experiment: Antagonist activity at AT1 receptor in rabbit aorta membranes
Format: cell membranes, Membrane

Question: With `CCCCC(=O)Nc1ccc(C)c(-n2nc(CCCC)n(Cc3ccc(-c4ccccc4S(=O)(=O)NC(=O)c4ccccc4Cl)cc3)c2=O)c1` as the compound, how does the IC50 read?
Answer: 24 nM

— ChEMBL document CHEMBL2424659, “Comparative QSAR and pharmacophore analysis for a series of 2,4-dihydro-3H-1,2,4-triazol-3-ones derivatives as angiotensin II AT1 receptor antagonists” (Med Chem Res, 2013)
